Entries after “also recorded” stand apart in the source; their conditions may differ.
Columns and labels:
[1] = design: method as in PMID 34969771, PMID 30201408; details: cited from earlier work
microglia = assay: LPA-induced microglial activation in hippocampal slices; assay type: cell-based, mouse; details: AM152, 10 µM LPA
Description: Microglial activation was then triggered by the addition of 10 µM LPA, slices incubated for 3 additional hours, then fixed. Slices were immunostained against IBA1 and microglial perimeters were measured as a mean of differentiating between ramified/resting versus rounded/activated microglia.
Brains were harvested from mice (postnatal day 20, Charles River). […] 400 µm thick coronal slices were cut on a McIlwain tissue chopper and returned to dissection media and separated manually. […] Slices were incubated for 2 h at 37 °C (4 slices per condition). Microglial activation was initiated by adding LPA (18:1, Avanti Polar Lipids) to a final concentration of 10 µM and incubated for 3 h. Slices were then fixed in formalin and for 2 h.
For immunohistochemistry, slices were washed for 3 × 15 min in 0.5% Triton-X100 and DPBS. Slices were then stained using IBA-1 antibody (Thermo Scientific) in 10% normal goat serum with 0.5% Triton-X100 in DPBS overnight on a rocker. Slices were then washed in 0.5% Triton-X100 in DPBS 3 × 15 min. Goat anti-mouse Alexa 564 (1:500, Invitrogen, Carlsbad, CA) and […] (Invitrogen, Carlsbad, CA) were diluted in DPBS with 0.5% Triton-X100 and incubated for 2h. Slices were washed 3 × 15 min in DPBS with 0.5% Triton-X100, mounted with Fluoromount and imaged on a Nikon A1R confocal microscope.

autotaxin = biological target: T1, autotaxin (Rattus norvegicus, UniProt Q64610); assay: LPA species in macrophage-conditioned media; assay type: cell-based; details: 1 µM, 48 h
T1 construct: Male Sprague Dawley rat macrophages were isolated from intraperitoneal lavage fluid; endogenous in cells; host or cells: primary rat peritoneal macrophages
Description: Autotaxin (ATX), an enzyme responsible for LPA synthesis, is elevated in CSF samples from multiple sclerosis patients and may be an underlying source of elevated LPA levels in the CNS during disease. […] To confirm the release of LPA from these macrophages, macrophage-conditioned media was taken 30 min or 48 h after plating and various LPA species were measured by mass spectrometry.
Rat macrophages were cultured as described above. Media from wells at 30 m or 48 h post-plating were taken. Media from macrophages treated with 1 µM PF-8380 (autotaxin inhibitor, Sigma, St Louis, MO) for 48 h was also collected. For LPA determination, 20 µl of culture media was aliquoted into glass 12 × 75 mm culture test tubes. 500 µl of 30 mM citric acid/40 mM disodium phosphate buffer (pH 4.0) with 1 ng/ml 17:0 LPA as an internal standard (IS) were also added to the test tubes. 2 ml of 1-butanol were then added to the test tubes, tubes covered with parafilm, vortexed for 10 s, and centrifuged for 10 min at 1000g at 4 °C. After centrifugation, the top layers were transferred to clean test tubes. The bottom layers were extracted again with 1 ml of water-saturated butanol. The test tubes were covered with parafilm, vortexed for 10 s, and centrifuged for 10 min at 1000g at 4 °C. […] After reconstitution, the samples were analyzed by LC–MS/MS using an AB Sciex 6500 + . […]

[2] = tested on: ROCK (Rho-associated kinase); design: method as in PMID 25289646; details: cited from earlier work

SMILES: Cc1noc(-c2ccc(-c3ccc(C4(C(=O)O)CC4)cc3)cc2)c1NC(=O)O[C@H](C)c1ccccc1 [AM152, reference compound]
- Phase 1 tolerability [1]: demonstrated Phase 1 tolerability
- effect on LPA-induced decrease in microglial perimeter length (microglia): inhibits microglial activation; also recorded: inhibited

SMILES: CCCN(C)C(=O)OCc1c(-c2ccc(O[C@H]3CCC[C@H](C(=O)O)C3)c(C)n2)nnn1C [BMS-986278]
- Phase 1 tolerability [1]: demonstrated Phase 1 tolerability

SMILES: O=C(CCN1CCN(C(=O)OCc2cc(Cl)cc(Cl)c2)CC1)c1ccc2[nH]c(=O)oc2c1 [PF-8380]
- effect on increase of LPA species in macrophage-conditioned media (autotaxin): prevents the induction of several LPA species; also recorded: inhibited

SMILES: O=S(=O)(c1cccc2cnccc12)N1CCCNCC1 [fasudil]
- effect on OPC differentiation [2]: leads to OPC differentiation

— publication PMC11079064, “Discovery of a brain penetrant small molecule antagonist targeting LPA1 receptors to reduce neuroinflammation and promote remyelination in multiple sclerosis” (Scientific Reports, 2024)
